Experimental data as given in patent publication US4232148A, “6-Deoxyneamines” (The Upjohn Company, priority 1979, dated 1980).
≈ marks a conversion by molar mass, not a printed value. Like-named read-outs stand apart in the source and are kept apart here.

Columns and labels:
Format in all cases: cell-based
B. cereus UC 3145 = test: standard disc plate assay, zone of inhibition; conditions: Bacillus cereus, UC3145, read-out: Zones of Inhibition, 1 mg/ml; 12.5 mm paper discs
Description: (§1) The compounds of formulas (V, VII, IX, XI, XIV, XVI, and XIX) are active as antibacterials and can be used in various environments to erradicate or control susceptible microorganisms. Tables I and II set forth the in vitro antibacterial test results for representative compounds of the present invention. The results were obtained with a standard disc plate assay using 12.5 mm paper discs.

E. coli UC 51 = test: standard disc plate assay, zone of inhibition; conditions: Escherichia coli, 12.5 mm paper discs
Description: as §1

S. lutea UC 130 = test: standard disc plate assay, zone of inhibition; conditions: Micrococcus luteus, UC130, read-out: Zones of Inhibition
Description: as §1

S. schottmeulleri UC 126 = test: standard disc plate assay, zone of inhibition; conditions: 12.5 mm paper discs, read-out: Zones of Inhibition; for zone of inhibition at 1000 µg/mL: 1 mg/ml
Description: as §1

D. pneumoniae UC 41 = test: standard microplate test in BHI Agar, MIC; conditions: Streptococcus pneumoniae, UC41, 37°, 20 hours, read-out: Minimal Inhibitory Concentration
Procedure: (§2) The compounds VII, XI, XVβ, XVα and XVI were tested in a standard microplate test in BHI (Brain Heart Infusion) Agar at a concentration of 1 mg./ml. and dilutions thereof at 37° incubation temperature. The end points are read at 20 hours. BHI Agar is supplied by Difco Laboratories, Detroit, Mich., U.S.A. and has the following compositions:
(§3) Calf brains, infusion from: 200 gm.
(§4) Beef heart, infusion from: 250 gm.
(§5) Bacto Proteose-peptone, Difco: 10 gm.
(§6) Bacto-Dextrose, Difco: 1 gm.
(§7) Disodium phosphate: 2.5 gm.

K. pneumoniae UC 58 = test: standard microplate test in BHI Agar, MIC; conditions: Klebsiella pneumoniae, UC58, 20 h
Procedure: as §2, §3, §4, §5, §6, §7

P. morganii UC 3186 = test: standard microplate test in BHI Agar, MIC; conditions: Morganella morganii, UC3186, 20 h
Procedure: as §2, §3, §4, §5, §6, §7

S. aureus UC 76 = test: standard microplate test in BHI Agar, MIC; conditions: Staphylococcus aureus, UC76, 20 h, read-out: Minimal Inhibitory Concentration
Procedure: as §2, §3, §4, §5, §6, §7

S. faecalis UC 694 = test: standard microplate test in BHI Agar, MIC; conditions: Enterococcus faecalis
Procedure: as §2, §3, §4, §5, §6, §7

S. flexneri UC 143 = test: standard microplate test in BHI Agar, MIC; conditions: Shigella flexneri, UC143, 37°, 20 hours
Procedure: as §2, §3, §4, §5, §6, §7

S. pyogenes UC 152 = test: standard microplate test in BHI Agar, MIC; conditions: Streptococcus pyogenes, UC152, 20 h
Procedure: as §2, §3, §4, §5, §6, §7

S. schottmuelleri UC 126 = test: standard microplate test in BHI Agar, MIC; conditions: 37°, 20 hours
Procedure: as §2, §3, §4, §5, §6, §7

S. typhi UC 215 = test: standard microplate test in BHI Agar, MIC; conditions: Salmonella enterica, 20 h, read-out: Minimal Inhibitory Concentration
Procedure: as §2, §3, §4, §5, §6, §7

E. coli UC 311 = test: standard microplate test in BHI Agar, MIC; conditions: Escherichia coli, UC311, 20 h, read-out: Minimal Inhibitory Concentration
Procedure: as §2, §3, §4, §5, §6, §7

P. mirabilis UC 6671 = test: standard microplate test in BHI Agar, MIC; conditions: Proteus mirabilis, UC6671, 37°, 20 hours
Procedure: as §2, §3, §4, §5, §6, §7

P. vulgaris UC 93 = test: standard microplate test in BHI Agar, MIC; conditions: Proteus vulgaris, UC93, 37°, 20 hours
Procedure: as §2, §3, §4, §5, §6, §7

S. marcescens UC 131 = test: standard microplate test in BHI Agar, MIC; conditions: Serratia marcescens, UC131, 37°, 20 hours
Procedure: as §2, §3, §4, §5, §6, §7

E. coli UC 45 = test: standard microplate test in BHI Agar, MIC; conditions: Escherichia coli, UC45, 37°, 20 hours, read-out: Minimum Inhibitory Concentration
Procedure: as §2, §3, §4, §5, §6, §7

S. pneumoniae I UC 41 = test: standard microplate test in BHI Agar, MIC; conditions: Streptococcus pneumoniae, UC41, 37°, 20 hours, read-out: Minimum Inhibitory Concentration
Procedure: as §2, §3, §4, §5, §6, §7

S. aureus UC 80 = test: standard disc plate assay, zone of inhibition; conditions: Staphylococcus aureus, UC80, read-out: Zones of Inhibition, 1 mg/ml; 12.5 mm paper discs
Description: as §1

[1] = read-out: Minimal Inhibitory Concentration
[2] = UC694, 20 h, read-out: Minimal Inhibitory Concentration
[3] = read-out: Minimum Inhibitory Concentration

Row | Structure (SMILES) | zone of inhibition at 1000 µg/mL (S. schottmeulleri UC 126) | MIC (D. pneumoniae UC 41) | MIC (S. aureus UC 76) | MIC (S. faecalis UC 694; [2]) | MIC (S. flexneri UC 143; [1]) | MIC (S. schottmuelleri UC 126; [1]) | MIC (E. coli UC 45) | MIC (P. mirabilis UC 6671; [3]) | MIC (P. morganii UC 3186; [3]) | MIC (P. vulgaris UC 93; [3]) | MIC (S. flexneri UC 143; [3]) | MIC (S. pneumoniae I UC 41) | MIC (S. schottmuelleri UC 126; [3]) | other results
1 | NC[C@H]1O[C@H](O[C@@H]2[C@@H](N)C[C@@H](N)C[C@H]2OC2O[C@H](CO)[C@@H](O)[C@H]2O)[C@H](N)[C@@H](O)[C@@H]1O (single isomer, unassigned) [Compound XVα, O-2,6-Diamino-2,6-dideoxy-α-D-glucopyranosyl (1→4)-O-[α-D-ribofuranosyl(1→5)]-2,6-dideoxy-D-streptamine] | 20 mm | 125 µg/mL (≈ 285 µM) | 125 µg/mL (≈ 285 µM) | > 500 µg/mL | 500 µg/mL (≈ 1140 µM) | 125 µg/mL (≈ 285 µM) | – | – | – | – | – | – | – | zone of inhibition at 1000 µg/mL (B. cereus UC 3145): 20 mm; zone of inhibition at 1000 µg/mL (E. coli UC 51; UC51, read-out: Zones of Inhibition, 1 mg/ml): 24 mm; zone of inhibition at 1000 µg/mL (S. lutea UC 130): 16 mm; MIC (K. pneumoniae UC 58; [1]): 15.6 µg/mL (≈ 35.6 µM); MIC (P. morganii UC 3186; [1]): 125 µg/mL (≈ 285 µM); MIC (S. pyogenes UC 152; [1]): 31.2 µg/mL (≈ 71.2 µM); MIC (S. typhi UC 215): 62.5 µg/mL (≈ 143 µM)
2 | NC[C@H]1O[C@H](O[C@@H]2[C@@H](N)C[C@@H](N)C[C@H]2OC2O[C@H](CO)[C@@H](O)[C@H]2O)[C@H](N)[C@@H](O)[C@@H]1O (single isomer, unassigned) [Compound XVβ, O-2,6-Diamino-2,6-dideoxy-α-D-glucopyranosyl (1→4)-O-[β-D-ribofuranosyl(1→5)]-2,6-dideoxy-D-streptamine] | 24 mm | 15.6 µg/mL (≈ 35.6 µM) | 31.2 µg/mL (≈ 71.2 µM) | – | 31.2 µg/mL (≈ 71.2 µM) | 7.8 µg/mL (≈ 17.8 µM) | – | – | – | – | – | – | – | zone of inhibition at 100 µg/mL (E. coli UC 51; UC51, 0.1 mg/ml, read-out: Zones of Inhibition): 20 mm; zone of inhibition at 100 µg/mL (S. schottmeulleri UC 126; 0.1 mg/ml): 16 mm; MIC (E. coli UC 311): 31.2 µg/mL (≈ 71.2 µM); MIC (P. mirabilis UC 6671; [1]): 125 µg/mL (≈ 285 µM); MIC (P. vulgaris UC 93; [1]): 31.2 µg/mL (≈ 71.2 µM); MIC (S. faecalis UC 694; UC694, BHI Agar, 37°, 20 hours, read-out: Minimal Inhibitory Concentration): 500 µg/mL (≈ 1140 µM); MIC (S. marcescens UC 131; [1]): 62.5 µg/mL (≈ 143 µM)
3 | C[C@@]1(O)C[C@H](N)C[C@H](N)[C@H]1O[C@H]1O[C@H](CN)[C@@H](O)[C@H](O)[C@H]1N [6-Deoxy-5-methylneamine, 6-Deoxy-5-methyl-neamine] | 21 mm | – | – | – | – | – | 125 µg/mL (≈ 390 µM) | 250 µg/mL (≈ 780 µM) | 125 µg/mL (≈ 390 µM) | 62.5 µg/mL (≈ 195 µM) | 125 µg/mL (≈ 390 µM) | 62.5 µg/mL (≈ 195 µM) | 62.5 µg/mL (≈ 195 µM) | MIC (K. pneumoniae UC 58; [3]): 15.6 µg/mL (≈ 48.7 µM); MIC (S. faecalis UC 694; UC694, 20 h, read-out: Minimum Inhibitory Concentration): > 500 µg/mL; MIC (S. marcescens UC 131; [3]): 125 µg/mL (≈ 390 µM); MIC (S. pyogenes UC 152; [3]): 7.8 µg/mL (≈ 24.3 µM)
4 | NC[C@H]1O[C@H](O[C@@H]2[C@@H](N)C[C@@H](N)C[C@H]2O[C@@H]2C[C@@H](N)[C@H](O)[C@@H](CO)O2)[C@H](N)[C@@H](O)[C@@H]1O [Compound XVI, O-2,6-Diamino-2,6-dideoxy-α-D-glucopyranosyl (1→4)-O-[3-amino-2,3-dideoxy-α-D-arabinohexopyranosyl(1→5)-2,6-dideoxy-D-streptamine]] | 15 mm | – | – | > 500 µg/mL | > 500 µg/mL | > 500 µg/mL | – | – | – | – | – | – | – | zone of inhibition at 1000 µg/mL (S. aureus UC 80): 21 mm
5 | NC[C@H]1O[C@H](O[C@H]2[C@H](O)C[C@H](N)C[C@@H]2N)[C@H](N)[C@@H](O)[C@@H]1O [6-deoxyneamine, 6-Deoxyneamine] | – | – | – | – | – | – | 31.2 µg/mL (≈ 102 µM) | 62.5 µg/mL (≈ 204 µM) | 62.5 µg/mL (≈ 204 µM) | 31.2 µg/mL (≈ 102 µM) | 62.5 µg/mL (≈ 204 µM) | 62.5 µg/mL (≈ 204 µM) | 31.2 µg/mL (≈ 102 µM) | –
6 | NC[C@H]1O[C@H](O[C@@H]2[C@@H](N)C[C@@H](N)C[C@@H]2O)[C@H](N)[C@@H](O)[C@@H]1O [6-Deoxy-5-epineamine] | 21 mm | – | – | – | – | – | – | – | – | – | – | – | – | –
